In US20070003531A1, “Methods for improving immunotherapy by enhancing survival of antigen-specific cytotoxic T lymphocytes” (University of Connecticut, priority 2005, published 2007):
Entries after “also recorded” stand apart in the source; their conditions may differ.

Assays:
[1] = test system: AIF translocation in MART-127-35 specific CTL; assay: Mitochondrio-nuclear translocation/release of AIF in CTL during AICD; type: cell-based, human; conditions: CTL restimulated by cognate epitope
Source text: FIG. 14. Nuclear translocation of AIF and effect of SP600125 on the AIF release and such translocation. The MART-1 epitope specific CTLs generated in the in vitro CTL generation protocol were restimulated by the cognate epitope or a control epitope in the presence or absence of the JNK inhibitor SP600125. (A) Western blot of heavy membrane faction (HM) and cytosolic fraction (S-100) of control CTL (C) and CTLs restimulated by the cognate peptide (M1). As shown, AIF is released in the cytosol of CTLs encountering the cognate peptide without any release of cytochrome c. (B) Effect of SP600125 on AIF release in CD3 induced AICD in Jurkat cells. As shown, AIF is released without cytochrome c release in these cells and SP600125 interferes with the AIF release. (C) Densitometric analysis of the SP600125 effect on AIF release.
Sub-cellular Fractionation. Sub-cellular fractionation was done according to Gross, et al., with minor modifications. Heavy membrane and light membrane fractions were solublized in RIPA buffer supplemented with protease inhibitors and the proteins extracted from heavy membrane (HM), light membrane (LM) and supernatant (S-100) fractions were analyzed by immuno-blot analysis.
Immunofluorescence microscopy. […] The cells were fixed with 4% para-formaldehyde in PBS and stained with appropriate antibodies for co-localization of proteins by fluorescence microscopy. […]

[2] = test system: MART-127-35 epitope specific human primary CTL; assay: AICD induction and quantitation in epitope specific primary CTL (tetramer/annexin V FACS); type: cell-based; conditions: pre-incubation about 45 min; restimulation with MART-127-35 peptide pulsed T2 cells; kinase inhibitors 25 μM, z-VAD-fmk 100 μM, Fc chimeras 10 μg/ml
Experimental: FIG. 10. Effect of external death receptor blockade and MAP kinase inhibitors on AICD in the epitope specific CTLs upon secondary encounter of the cognate epitope. The CTLs were pre-incubated at optimal concentration for about 45 min. at about 37° C. with pan caspase inhibitor z-VAD-fmk (100 μM); human Fas/Fc chimera, human TNF-RI/Fc chimera, human TRAIL-RI/Fc chimera, human TRAIL-RII/Fc chimera and human IFN-γ RI/Fc chimeric proteins (10 μg/ml); p38 kinase inhibitor SB203580, JNK inhibitor anthra[1,9-cd]pyrazol-6(2H)-one (SP600125), […] inhibitor PD98059 (25 μM). Then the pretreated as well as untreated CTLs were incubated with T2 cells either alone or loaded with peptide. About 4 hours after secondary exposure cells were stained for determining: (A) Number of tetramer^+ cells out of the CD8^+ T cells [Top panel]; number of tetramer^+/Annexin V^+ and tetramer^+/Annexin^− populations [Bottom panel]. […] (B) Effect of the MAP kinase inhibitors on IFN-γ response by the effector cells.
AICD induction and quantitation. AICD in the human primary CTL primed and expanded specifically for melanoma epitope MART-127-35 was induced by re-exposure of the CTLs to MART-127-35 peptide (1 μg/ml) as reported previously. Staurosporine mediated death was induced by exposure of CTL to 1 μM staurosporine for 4 hr. Quantitation of AICD and the effects of various inhibitors on AICD of CTLs, were carried out by annexin-V staining followed by FACS analyses as reported previously.
In test whether or not the epitope specific primary CTLs undergo AICD, the activated CTLs were exposed to peptide [1 μg/ml] loaded T2 cells (Effector: Target=100) at different time points of the cultures. Thereafter, the evidence of apoptosis was determined by flow cytometry with triple color staining (CD8, MART-127-35/HLA-A2 tetramer and annexin V) at different time points (4-18 h). Experiments were carried out in triplicate wells and significance was calculated by One-way analysis of variance (ANOVA) using Sigma Stat statistical software, Chicago, Ill.
To evaluate the effect of various agents in modulating AICD, the CTLs were pre-incubated with various compounds at optimal concentration for 45 min. at 37° C. and then exposed to T2 cells alone or loaded with peptide.

Question: How did the “mitochondrio-nuclear translocation/release of AIF in CTL” value [1] turn out when `O=C1c2ccccc2-c2n[nH]c3cccc1c23` [SP600125, anthra[1,9-cd]pyrazol-6(2H)-one] was run?
Answer: blocks; also recorded: blocking effect

Question: What about the “protection/rescue of CTL from AICD” value [2] of the same compound?
Answer: protected; also recorded: rescued a significant fraction; also recorded: capable of protecting; also recorded: blocked
